This passage reports IC50 results from the supplement of paper PMC3493320.

A value given as a limit tells only on which side of the number the result lay.

This assay concerns NCI-H295R. Description: IC50 (antiproliferative, ATP content). Conditions: 48 h. In outline:
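Serum-free ITS-supplemented DMEM was used to seed 1500 adrenocortical carcinoma cells per well in 1536-well plates, which were cultured overnight. Eight final concentrations of each library compound, from 0.6 nM to 46 µM, were added by pin transfer, followed by 48 h at 37 °C in 5% CO2 and a CellTiter-Glo ATP read after 20 min at room temperature. Luminescence was set against vehicle and positive-control wells, and the IC50 was obtained by logistic curve fitting. Any compound with no concentration response was entered as above the top dose.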
The IC50 is the concentration that gives 50% inhibition. A high value points to weaker potency in that assay. The molecule `CCN(CC)CCOc1ccc2c(c1)C(=O)c1cc(OCCN(CC)CC)ccc1-2` yielded an IC50 greater than 46 µM. For `CC(C)c1ccc2oc3nc(N)c(C(=O)O)cc3c(=O)c2c1` the value was greater than 46 µM. For the molecule `CC(CNC(=O)c1cccnc1)NC(=O)c1cccnc1` (stereo unspecified), the half-inhibitory concentration (IC50) was greater than 46 µM. The result for `N#CN` reads greater than 46 µM; that for `CCn1cc(C(=O)O)c(=O)c2cc(F)c(N3CCNCC3)nc21`, greater than 46 µM. The result for `C(=Cc1ccccc1)CN1CCN(C(c2ccccc2)c2ccccc2)CC1` reads greater than 46 µM; that for `CC(C)(C)C(=O)OCOP(=O)(COCCn1cnc2c(N)ncnc21)OCOC(=O)C(C)(C)C`, greater than 46 µM. For `Cl.Cl.O=C(O)COCCN1CCN(C(c2ccccc2)c2ccc(Cl)cc2)CC1` (stereo unspecified) the value was greater than 46 µM. Regarding `O=C(O)CCCc1ccc(N(CCCl)CCCl)cc1`, the IC50 is greater than 46 µM.

Turning to `CC1=C(O[C@H](CCNC)[C@@]2=CC=CC=C2)C=CC=C1.Cl`, the IC50 is greater than 46 µM. The result for `CC(c1cc2ccccc2s1)N(O)C(N)=O` (stereo unspecified) reads greater than 46 µM; that for `CC12CC3CC(C)(C1)CC(N)(C3)C2`, greater than 46 µM. The result for `S=C=Nc1ccc(N=C=S)cc1` reads greater than 46 µM. The result for `OCC(=O)[C@@]2(O)CC[C@H]3[C@@H]4CC\C1=C\C(=O)CC[C@]1(C)[C@H]4[C@@H](O)C[C@]23C` reads greater than 46 µM. In the case of `COC(=O)CCC(=O)CN.Cl`, the IC50 was greater than 46 µM. For `O=C1N=C2SCCN2C(=O)C1Cc1ccc(Cl)cc1` (stereo unspecified) the value was greater than 46 µM; for `CC(=O)N[C@@H](CS)C(=O)O`, greater than 46 µM; for `CC(C)(C)C(=O)OCOC(=O)[C@@H]1N2C(=O)[C@@H](NC(=O)[C@H](N)c3ccccc3)[C@H]2SC1(C)C`, greater than 46 µM. The result for `O=C(OCc1ccccc1)c1ccc(O)cc1` reads greater than 46 µM; that for `O=C(O)Cc1cccc2ccccc12`, greater than 46 µM; that for `CC12CCC(C[N+](C)(CCC[N+](C)(C)C)C1)C2(C)C.COS(=O)(=O)[O-].COS(=O)(=O)[O-]` (stereo unspecified), greater than 46 µM. For `CCc1c(C)[nH]c2c1C(=O)C(CN1CCOCC1)CC2` (stereo unspecified) the value was greater than 46 µM.

For the molecule `CN1CCCC(CN2c3ccccc3Sc3ccccc32)C1` (stereo unspecified), the half-maximal inhibitory concentration (IC50) is greater than 46 µM. The result for `CNC[C@H](O)[C@@H](O)[C@H](O)[C@H](O)CO` reads greater than 46 µM; that for `CC(=O)Nc1ccc(OC(C)=O)cc1`, greater than 46 µM; that for `S=P(N1CC1)(N1CC1)N1CC1`, greater than 46 µM. Turning to `COc1cc(C(=S)N2CCOCC2)cc(OC)c1OC`, the IC50 is greater than 46 µM.

In turn, `O=C(/C=C/c1ccc(O)c(O)c1)O[C@@H]1C[C@@](OC(=O)/C=C/c2ccc(O)c(O)c2)(C(=O)O)C[C@@H](O)[C@@H]1O` returned an IC50 greater than 46 µM. The result for `O=C(O)c1cccnc1` reads greater than 46 µM; that for `O=c1oc2c(O)c(O)cc3c(=O)oc4c(O)c(O)cc1c4c23`, greater than 46 µM. For `Nc1ccc(S(=O)(=O)Nc2ncccn2)cc1` the value was greater than 46 µM; for `NC(=O)OC[C@@H]1[C@H](NC(=O)/C(=N\OCC(=O)[O-])c2csc(N)n2)C(=O)N1S(=O)(=O)[O-].[Na+].[Na+]`, greater than 46 µM. For `CO[C@@]1(NC(=O)CSCC#N)C(=O)N2C(C(=O)[O-])=C(CSc3nnnn3C)CS[C@@H]21.[Na+]` the value was greater than 46 µM; for `C=CCN1C[C@H](C)N([C@H](c2ccc(C(=O)N(CC)CC)cc2)c2cccc(OC)c2)C[C@H]1C`, greater than 46 µM; for `C#C[C@]1(O)CC[C@H]2[C@@H]3CCC4=CC(=O)CC[C@@H]4[C@H]3CC[C@@]21C`, greater than 46 µM.

Molecule `CCCN(CCc1cccs1)[C@H]1CCc2c(O)cccc2C1` yielded an IC50 greater than 46 µM. For `CCCNC(C)(C)COC(=O)c1ccccc1.Cl` the value was greater than 46 µM. For `OC[C@H]1OC(O)[C@H](O)[C@@H](O)[C@H]1O` (stereo partly specified) the value was greater than 46 µM. For `C#CCN(C)[C@H](C)Cc1ccccc1.Cl` the value was greater than 46 µM; for `COP(=O)(OC)OC=C(Cl)Cl`, greater than 46 µM; for `COCC(C)N(C(=O)CCl)c1c(C)csc1C` (stereo unspecified), greater than 46 µM. With `Oc1ccc(OCc2ccccc2)cc1`, the IC50 is greater than 46 µM. Regarding `CNC(=O)OCc1cccc(COC(=O)NC)n1`, the IC50 was greater than 46 µM.

Take `Nc1ccc(S(N)(=O)=O)cc1`: the IC50 was greater than 46 µM. The result for `FC(F)(F)C(F)(F)C(F)(F)C(F)(F)C(F)(F)F` reads greater than 46 µM; that for `CCN(CC)C(=O)c1ccc(O)c(OC)c1`, greater than 46 µM.

Molecule `NC(=O)OCCCc1ccccc1` returned an IC50 greater than 46 µM. The result for `CC(C)=CCC/C(C)=C/CC/C(C)=C/CC/C(C)=C/CC1=C(C)C(=O)c2ccccc2C1=O` reads greater than 46 µM. The result for `Nc1ccc(C(=O)[O-])c(O)c1.[Na+]` reads greater than 46 µM. The result for `CCOC(=O)[N-]c1c[n+](N2CCOCC2)no1` reads greater than 46 µM; that for `ClCC1CO1` (stereo unspecified), greater than 46 µM; that for `O=C([C@H]3N[C@H]([C@](OCC)=O)CCC2=CC=CC=C2)N(CC(O)=O)C[C@H](SC3)[C@@]1=CC=CS1.Cl`, greater than 46 µM.

In the case of `Cl.c1cc2c(c(N3CCNCC3)c1)OCCO2`, the IC50 was greater than 46 µM.

With `O=C(O)c1cc(O)nc(O)n1`, the IC50 was greater than 46 µM.

The molecule `O=S(=O)(O)c1ccc(O)cc1` yielded an IC50 greater than 46 µM. The result for `O=C1N2[C@@](SC(C)(C)[C@@H]2[C@@](O)=O)([H])[C@@]([H])1NC([C@H](NC([C@H](N)CC(NC)=O)=O)[C@@]3=CC=C(O)C=C3)=O` reads greater than 46 µM. For `NC(CNC([C@H](CC(C)C)N[C@]([C@@H]1CCCN1[C@]([C@H](CSSC[C@H](N)C(N[C@@H](CC3=CC=C(O)C=C3)C2=O)=O)NC([C@H](CC(N)=O)NC([C@@H](NC([C@](N2)([H])[C@@H](C)CC)=O)CCC(N)=O)=O)=O)=O)=O)=O)=O.O=C(C)O` the value was greater than 46 µM; for `CCCC(=O)OC(C(Cl)(Cl)Cl)P(=O)(OC)OC` (stereo unspecified), greater than 46 µM. In turn, `CC(=O)OCC(=O)[C@@]1(O)CC[C@H]2[C@@H]3CCC4=CC(=O)C=C[C@]4(C)[C@@]3(F)[C@@H](O)C[C@@]21C` came in with an IC50 greater than 46 µM. The result for `O=c1[n-]c2[nH]c(=O)[nH]c(=O)c2[nH]1.[Na+]` reads greater than 46 µM; that for `C=CC1=C(C(=O)O)N2C(=O)[C@@H](NC(=O)C(=NOCC(=O)O)c3csc(N)n3)[C@H]2SC1`, greater than 46 µM. On to `O=C([O-])c1cc(O)c2c3nc4ccccc4oc-3cc(=O)c2n1.[Na+]`, for which the IC50 is greater than 46 µM. The result for `COc1ccccc1OCC(O)CO` (stereo unspecified) reads greater than 46 µM; that for `N=C(N)NC(=O)c1nc(Cl)c(N)nc1N`, greater than 46 µM; that for `CC(=O)OCC1=C(C(=O)O)N2C(=O)[C@@H](NC(=O)Cc3ccccc3)[C@H]2SC1`, greater than 46 µM.

As to `O=C1OC(c2ccc(O)cc2)(c2ccc(O)cc2)c2ccccc21`, the IC50 was greater than 46 µM. For `Nc1cc(c(cc1S(=O)(N)=O)S(N)(=O)=O)C(/Cl)=C(/Cl)Cl` the value was greater than 46 µM. The result for `CC1=C2[C@H]3OC(=O)[C@@H](C)[C@@H]3CC[C@@]2(C)C=CC1=O` reads greater than 46 µM; that for `Cc1c(C)n(CCN(C)C)c2ccc(C(=O)OCCN(C)C)cc12`, greater than 46 µM.

Consider `NS(=O)(=O)c1cc2c(cc1C(F)(F)F)NC(Cc1ccccc1)NS2(=O)=O` (stereo unspecified), for which the IC50 is greater than 46 µM. On to `NC(=O)c1cnccn1`, for which the IC50 is greater than 46 µM. For `CCOc1ccc(NC(=O)CC(C)O)cc1` (stereo unspecified) the value was greater than 46 µM; for `Nc1ccc(C=Cc2ccc(N)cc2S(=O)(=O)O)c(S(=O)(=O)O)c1`, greater than 46 µM. For `CCC1(c2cccc(O)c2)CCCCN(C)C1.Cl` (stereo unspecified), the IC50 was greater than 46 µM. In turn, `Clc1ccccc1CN1CCc2sccc2C1` returned an IC50 greater than 46 µM. The result for `S=C=S` reads greater than 46 µM; that for `CCCCNCC(O)c1ccc(O)cc1` (stereo unspecified), greater than 46 µM; that for `C#CC(C)(O)CC` (stereo unspecified), greater than 46 µM. For `CCN(CC)CCSC(=O)C(c1ccccc1)c1ccccc1` the value was greater than 46 µM; for `CNc1ccc(C(=O)CC(O)CCC(C)C2OC(=O)CC(O)CC(=O)CC(O)CC(O)CC(O)CC(O)CC3(O)CC(O)C(C(=O)OC)C(CC(O[C@@H]4O[C@H](C)[C@@H](O)[C@H](N)[C@@H]4O)/C=C/C=C/C=C/C=C/C=C/C=C/C=C/C2C)O3)cc1` (stereo partly specified), greater than 46 µM; for `NCC1CCC(C(=O)O)CC1` (stereo unspecified), greater than 46 µM. `CC(=O)Nc1ccc(OCCOCCOc2ccc(NC(C)=O)cc2)cc1`: the IC50 was greater than 46 µM. Molecule `Cc1ccccc1OCC(O)CO` (stereo unspecified) showed an IC50 greater than 46 µM. The result for `Cc1cc(NS(=O)(=O)c2ccc(N)cc2)no1` reads greater than 46 µM. The result for `O=C1[O][Bi]([OH])[O]c2ccccc21` reads greater than 46 µM; that for `CCCCCc1ccc(C)cc1O`, greater than 46 µM. For `CCCC(O)C(CC)CO` (stereo unspecified) the value was greater than 46 µM; for `Cc1ccc(S(=O)(=O)[N-]Cl)cc1.O.O.O.[Na+]`, greater than 46 µM; for `COc1ccc2[nH]c(S(=O)Cc3ncc(C)c(OC)c3C)nc2n1` (stereo unspecified), greater than 46 µM. Take `COc1cc(NS(=O)(=O)c2ccc(N)cc2)ncn1`: the IC50 was greater than 46 µM. For `c1ccc2sc(SN3CCOCC3)nc2c1` the value was greater than 46 µM. For `CCN1CCN(c2cc3c(cc2F)c(=O)c(C(=O)O)cn3C2CC2)CC1` the value was greater than 46 µM. The result for `O=C1[C@H](CC[C@@H](C4=CC=C(F)C=C4)O)[C@@H]([C@]3=CC=C(O)C=C3)N1C2=CC=C(F)C=C2` reads greater than 46 µM; that for `O=[C@](OCC2=COC(CC3=CC=CC=C3)=C2)[C@H]1C(C)(C)[C@@H]1\C=C(C)/C`, greater than 46 µM; that for `NC(=O)NO`, greater than 46 µM. The molecule `OCc1ccccc1O` yielded an IC50 greater than 46 µM.
